Test results as given in US20180055848A1 (Board of Supervisors of Louisiana State University and …, priority 2015, published 2018).
Read-outs that look alike come from different tables or passages of the source.

Tests used:
adults = details: after 6 months; cited from earlier work
[1] = system: Male Sprague-Dawley rats fed a high fat diet; assay: Example 6: lean and fat mass in rats, 8 weeks; format: in vivo, rat; details: i.p. twice a day, albuterol 0.125 mg/kg, caffeine 3.12 mg/kg
Experimental: (§1) The Pennington Biomedical Research Center Animal Care and Use Committee approved the animal protocols. […] Male Sprague-Dawley rats (Harlan, Inc., Indianapolis, Ind., 8-9 weeks old) were fed a high fat diet (60% calories from fat, D12492, Research Diets, New Brunswick, N.J.) for 4 weeks. […] All treatments were administered by intraperitoneal injection twice a day. […] Body composition was measured by Nuclear Magnetic Resonance (Minispec LF90 NMR analyzer, Bruker Optics, Billerica, Mass.). Weight and food intake were recorded every 2 days. […] Total activity was measured with a Phenomaster system (TSE Systems, Chesterfield Mo.). Chambers had evenly spaced infrared beam grids along X, Y, and Z axes; the system sensed and quantified total beam breaks caused by movements of the animal.

[2] = system: Male Sprague-Dawley rats fed a high fat diet; assay: Example 5: weight gain, body composition and metabolic chamber in rats, 4 weeks; format: in vivo, rat
Experimental: as §1

[3] = system: lean adults and post-obese adults; details: 100 mg of caffeine, cited from earlier work
[4] = system: Differentiated human adipocytes; assay: Lipolysis assay (glycerol release) in cultured adipocytes; format: cell-based; details: 3 hours
Experimental: Primary human adipose tissue was obtained from patients undergoing liposuction, paniculectomy, or bariatric surgery. Tissue was processed by […]) to isolate and cryopreserve pre-adipocytes. At the time of the assay, pre-adipocytes were differentiated into adipocytes. Differentiated human adipocytes adherent to the bottom of a 96-well plate were washed and treated with media containing one of ten treatments: […] After incubation, a 50 μL aliquot was removed and combined with 50 μL glycerol reagent, in a colorimetric assay based on the amount of glycerol released during incubation with test compounds. Absorbance was measured at 540 nm, and results were calibrated against a standard curve. Eight replicates were conducted for each treatment.

healthy adults = assay: Metabolic rate in humans (indirect calorimetry, crossover study)

## CCCCCCCCCCC[C@@H](C[C@@H]1OC(=O)[C@H]1CCCCCC)OC(=O)[C@H](CC(C)C)NC=O [Orlistat]
adults
  weight loss: about 2.8%
  weight loss attributable to fat loss: 2.1%
  weight loss attributable to reduction in lean tissue: 0.7%

## CC(C)(C)NCC(O)c1ccc(O)c(CO)c1 (stereo not shown) [albuterol, albuterol (salbutamol)]
[1]; p=0.004, n=30
  fat mass gained, week 8: 20.1 g
[1]; p=0.03, n=30
  lean mass gained by week 8: 60.3 g
[2]; 4 weeks, i.p. twice a day, albuterol 0.125 mg/kg, caffeine 3.12 mg/kg, p<0.001
  additional lean mass gained compared to the saline control group: 16.6 g
[2]; 4 weeks, i.p. twice a day, albuterol 0.125 mg/kg, caffeine 3.12 mg/kg, p=0.04
  weight gain compared to the saline control group: gained significantly more weight
[2]; albuterol 0.125 mg/kg i.p. twice a day, p=0.07
  energy expenditure during the dark phase: trend towards increased energy expenditure

## Cn1c(=O)c2c(ncn2C)n(C)c1=O [caffeine]
[2]; 4 weeks, i.p. twice a day, p=0.006
  fat accretion: reduced fat accretion
[3]
  increase in resting metabolic rate: 3-4%
[3]; lean adults
  increase in resting metabolic rate: 150 kcal/day
[3]; post-obese adults
  increase in resting metabolic rate: 80 kcal/day
[4]; caffeine 10 μg/mL, p=0.83
  increase in lipolysis over buffer-treated cells: exception
Healthy adults; 100 mg caffeine alone, oral
  increased energy expenditure (the delta): 37 kcal
Healthy adults; all dosages, single oral dose, p<0.02 to p<0.001, n=8
  energy expenditure over the baseline metabolic rate: significant increases

## CC(C)NCC(O)c1ccc(O)c(O)c1 (stereo not shown) [isoproterenol, Isoproterenol]
[4]; Isoproterenol 1 μM positive control, p<0.001
  increase in lipolysis: ~90%
